Source: PMC10789292 (Journal of Alzheimer's Disease Reports, 2023)

Tested on: cPLA2-IVA expressed in mouse brain
Assay: Peptide binding to brain slices by IHC
Settings: for Binding (staining) to healthy NMRI and APP/PS1 mouse brain slices: biotinylated peptide 20 μM in HCN, overnight 4°C, DAB detection

Sequence | Binding (staining) to healthy NMRI and APP/PS1 mouse brain slices | Staining of APP/PS1 versus healthy brain slices (biotinylated peptide 20 μM, 2 years old APP/PS1 mice)
DDFRVWWPNFPR [PLP2] | good staining | 
HVTLRYMHPMVS [PLP25] | good staining | higher staining of APP/PS1 brain slices
YQFGYDYPRSQV [PLP1] | unable to bind the brain tissue | 
